Experimental data published in patent publication US20070167492A1, “Molluscicidal agents” (priority 2003, published 2007).

Legend:
[1] = tested on: Winter wheat (Kampa race) seeds; assay: Seed germination test of treated winter wheat seeds (rolled in paper); type: in vivo; details: 3x50 seeds, 6 days at 22° C.
How it was run: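 Seeds were disinfected with fludioxonil-containing Beret Gold (2 ml per kg seed) and coated with Sepiret® for formulations unsuitable for coating. Germination of 3×50 seeds rolled in paper was scored after 6 days at continuous 22° C. under a 16 hours light regime.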

[2] = tested on: Deroceras reticulatum (grey field slug); assay: Example 2: pot re-test, treated winter wheat seed with 5 adult slugs per pot, 7 days; type: in vivo; details: for number of damaged seeds relative to the untreated seed: two days after the start; for number of fecal pellets per pot relative to the untreated control / plants present relative to the untreated seed: after 2, 3 and 7 days
Text: Based on the results of the experiment described in Example 1, a selection was made from the various test numbers of that experiment for re-testing, partly to confirm the conclusions of that experiment and to test the unexpected outcome of some test compounds.
The selection of test numbers (Test No.) used in the present experiment relative to those of the experiment described in Example 1 is shown in Table 7.
The same seeds as described in Example 1 were sown in earthenware pots with an internal diameter of 20 cm and a height of 18 cm, filled with 7 cm of potting soil (Trio BV, Weesp, The Netherlands) and with a top 2 cm of white quartz sand. A total of 40 winter wheat seeds was placed in each pot, in a pattern of concentric circles on top of the quartz sand, the germ of the seed facing upwards. To each pot a total of 5 adult specimens of the test slug Deroceras reticulatum (grey field slug) were added. The pots were incubated at 18-19° C. with a relative humidity of ±95% and light regime of ±18 hours light/6 hours dark, without artificial lighting. The pots were not irrigated overhead. In total, 4 parallel tests were performed for each test.
The number of damaged seeds was, the number of plants present (germinated and not eaten or damaged by the slugs), the number of dead slugs and of the number of fecal pellets were determined after 2, 3 and 7 days following the addition of the slugs.
The data were statistically analysed by using F-tests (α=0.05) and pair-wise Student-tests.

[3] = Example 2, 2 ml formulated per kg seed, 2 days after sowing
[4] = Example 2, 2 ml formulated per kg seed, 3 days after sowing
[5] = Example 2, 2 ml formulated per kg seed, 7 days after sowing
[6] = Example 2, 4 ml formulated per kg seed, 2 days after sowing
[7] = Example 2, 4 ml formulated per kg seed, 3 days after sowing
[8] = Example 2, 4 ml formulated per kg seed, 7 days after sowing
[9] = Example 2, 10 ml formulated per kg seed, 2 days after sowing
[10] = Example 2, 10 ml formulated per kg seed, 3 days after sowing
[11] = Example 2, 10 ml formulated per kg seed, 7 days after sowing
[12] = Example 2, 8 ml formulated per kg seed, 2 days after sowing
[13] = Example 2, 8 ml formulated per kg seed, 3 days after sowing
[14] = Example 2, 8 ml formulated per kg seed, 7 days after sowing
[15] = Example 2, 12 ml formulated per kg seed, 2 days after sowing
[16] = Example 2, 12 ml formulated per kg seed, 3 days after sowing
[17] = Example 2, 12 ml formulated per kg seed, 7 days after sowing
[18] = Example 2, 3.8 ml formulated per kg seed, 2 days after sowing
[19] = Example 2, 3.8 ml formulated per kg seed, 3 days after sowing
[20] = Example 2, 3.8 ml formulated per kg seed, 7 days after sowing

O=CC=Cc1ccccc1 [cinnamaldehyde]
Percentage germinated ([1]; 2 ml formulated per kg seed): 25%
Percentage germinated ([1]; 4 ml formulated per kg seed): 0%
Percentage germinated ([1]; 10 ml formulated per kg seed): 0%
fecal pellets in comparison to the control ([2]; Example 2): equal number of fecal pellets
number of plants present relative to untreated ([2]; Example 2): no significantly different results
phytotoxic effect on the seeds ([2]; Example 2): phytotoxic effect on the seeds
reduction of damaged seeds relative to the untreated control ([2]; Example 2): more than 50%
result of seed treatment against slugs (conclusion) ([2]; Example 2): does not result in the desired effect
percentage of damaged seeds after 7 days ([2]; Example 2, 2 ml formulated per kg seed): 63%
Mean number of damaged seeds per pot [2, 3]: 8.8
Mean number of dead slugs per pot [2, 3]: 0
Mean number of damaged seeds per pot [2, 4]: 15.0
Mean number of dead slugs per pot [2, 4]: 0
Mean number of damaged seeds per pot [2, 5]: 25.0
Mean number of dead slugs per pot [2, 5]: 0.5
percentage of damaged seeds after 7 days ([2]; Example 2, 4 ml formulated per kg seed): 36%
Mean number of damaged seeds per pot [2, 6]: 5.0
Mean number of dead slugs per pot [2, 6]: 0
Mean number of damaged seeds per pot [2, 7]: 8.8
Mean number of dead slugs per pot [2, 7]: 0
Mean number of damaged seeds per pot [2, 8]: 14.3
Mean number of dead slugs per pot [2, 8]: 0.8
percentage of damaged seeds after 7 days ([2]; Example 2, 10 ml formulated per kg seed): 39%
Mean number of damaged seeds per pot [2, 9]: 6.0
Mean number of dead slugs per pot [2, 9]: 0
Mean number of damaged seeds per pot [2, 10]: 10.5
Mean number of dead slugs per pot [2, 10]: 0
Mean number of damaged seeds per pot [2, 11]: 15.8
Mean number of dead slugs per pot [2, 11]: 0.5
number of damaged seeds relative to the untreated seed ([2]; Example 2): significant reduction in the number of damaged seeds
Mean number of fecal pellets per pot ([2]; dosage 2 ml, 2 days): 45
Mean number of plants present per pot ([2]; dosage 2 ml, 2 days): 0
Mean number of fecal pellets per pot ([2]; dosage 2 ml, 3 days): 91
Mean number of plants present per pot ([2]; dosage 2 ml, 3 days): 0
Mean number of fecal pellets per pot ([2]; dosage 2 ml, 7 days): 124
Mean number of plants present per pot ([2]; dosage 2 ml, 7 days): 0
number of utilizable plants after 7 days ([2]; dosage 2 ml, 7 days): 0
Mean number of fecal pellets per pot ([2]; dosage 4 ml, 2 days): 28
Mean number of plants present per pot ([2]; dosage 4 ml, 2 days): 0
Mean number of fecal pellets per pot ([2]; dosage 4 ml, 3 days): 58
Mean number of plants present per pot ([2]; dosage 4 ml, 3 days): 0
Mean number of fecal pellets per pot ([2]; dosage 4 ml, 7 days): 82
Mean number of plants present per pot ([2]; dosage 4 ml, 7 days): 0
number of utilizable plants after 7 days ([2]; dosage 4 ml, 7 days): 0
Mean number of fecal pellets per pot ([2]; dosage 10 ml, 2 days): 42
Mean number of plants present per pot ([2]; dosage 10 ml, 2 days): 0
Mean number of fecal pellets per pot ([2]; dosage 10 ml, 3 days): 77
Mean number of plants present per pot ([2]; dosage 10 ml, 3 days): 0
Mean number of fecal pellets per pot ([2]; dosage 10 ml, 7 days): 91
Mean number of plants present per pot ([2]; dosage 10 ml, 7 days): 0
number of utilizable plants after 7 days ([2]; dosage 10 ml, 7 days): 0

O=[N+]([O-])NC1=NCCN1Cc1ccc(Cl)nc1 [imidacloprid]
Percentage germinated ([1]; 2 ml formulated per kg seed): 78%
Percentage germinated ([1]; 4 ml formulated per kg seed): 89%
Percentage germinated ([1]; 8 ml formulated per kg seed): 71%
Percentage germinated ([1]; 12 ml formulated per kg seed): 77%
result of seed treatment against slugs (conclusion) ([2]; Example 2): acceptable result
percentage of damaged seeds after 7 days ([2]; Example 2, 8 ml formulated per kg seed): 23%
Mean number of damaged seeds per pot [2, 12]: 4.8
Mean number of dead slugs per pot [2, 12]: 0
Mean number of damaged seeds per pot [2, 13]: 9.0
Mean number of dead slugs per pot [2, 13]: 0
Mean number of damaged seeds per pot [2, 14]: 9.0
Mean number of dead slugs per pot [2, 14]: 1.0
percentage of damaged seeds after 7 days ([2]; Example 2, 12 ml formulated per kg seed): 12%
Mean number of damaged seeds per pot [2, 15]: 1.8
Mean number of dead slugs per pot [2, 15]: 0
Mean number of damaged seeds per pot [2, 16]: 3.8
Mean number of dead slugs per pot [2, 16]: 0
Mean number of damaged seeds per pot [2, 17]: 4.8
Mean number of dead slugs per pot [2, 17]: 0.8
number of fecal pellets per pot relative to the untreated control ([2]; Example 2): significant reduction in the number of fecal pellets
plants present relative to the untreated seed ([2]; Example 2): significantly more plants present
number of damaged seeds relative to the untreated seed ([2]; Example 2): significant reduction in the number of damaged seeds
Mean number of fecal pellets per pot ([2]; dosage 8 ml, 2 days): 6
Mean number of plants present per pot ([2]; dosage 8 ml, 2 days): 7.8
Mean number of fecal pellets per pot ([2]; dosage 8 ml, 3 days): 17
Mean number of plants present per pot ([2]; dosage 8 ml, 3 days): 12.3
Mean number of fecal pellets per pot ([2]; dosage 8 ml, 7 days): 29
Mean number of plants present per pot ([2]; dosage 8 ml, 7 days): 18.3
number of utilizable plants after 7 days ([2]; dosage 8 ml, 7 days): 13.5
Mean number of fecal pellets per pot ([2]; dosage 12 ml, 2 days): 3
Mean number of plants present per pot ([2]; dosage 12 ml, 2 days): 16.0
Mean number of fecal pellets per pot ([2]; dosage 12 ml, 3 days): 17
Mean number of plants present per pot ([2]; dosage 12 ml, 3 days): 24.5
Mean number of fecal pellets per pot ([2]; dosage 12 ml, 7 days): 28
Mean number of plants present per pot ([2]; dosage 12 ml, 7 days): 28.3
number of utilizable plants after 7 days ([2]; dosage 12 ml, 7 days): 22.8

CC1OC(C)OC(C)OC(C)O1 (centres unmarked) [metaldehyde]
Percentage germinated ([1]; 3.8 ml formulated per kg seed): 56%
Percentage germinated ([1]; 7.5 ml formulated per kg seed): 31%
Percentage germinated ([1]; 11 ml formulated per kg seed): 48%
Percentage germinated ([1]; 15 ml formulated per kg seed): 8%
dead slugs observed during the course of the experiment ([2]; Example 2): More dead slugs
result of seed treatment against slugs (conclusion) ([2]; Example 2): good action against slugs
percentage of damaged seeds after 7 days ([2]; Example 2, 3.8 ml formulated per kg seed): 1%
Mean number of damaged seeds per pot [2, 18]: 0.5
Mean number of dead slugs per pot [2, 18]: 0.5
Mean number of damaged seeds per pot [2, 19]: 0.3
Mean number of dead slugs per pot [2, 19]: 0.8
Mean number of damaged seeds per pot [2, 20]: 0.3
Mean number of dead slugs per pot [2, 20]: 3.0
number of fecal pellets per pot relative to the untreated control ([2]; Example 2): significant reduction in the number of fecal pellets
plants present relative to the untreated seed ([2]; Example 2): significantly more plants present
number of damaged seeds relative to the untreated seed ([2]; Example 2): significant reduction in the number of damaged seeds
Mean number of fecal pellets per pot ([2]; dosage 3.8 ml, 2 days): 0
Mean number of plants present per pot ([2]; dosage 3.8 ml, 2 days): 20.8
Mean number of fecal pellets per pot ([2]; dosage 3.8 ml, 3 days): 0
Mean number of plants present per pot ([2]; dosage 3.8 ml, 3 days): 32.5
Mean number of fecal pellets per pot ([2]; dosage 3.8 ml, 7 days): 5
Mean number of plants present per pot ([2]; dosage 3.8 ml, 7 days): 35.8
number of utilizable plants after 7 days ([2]; dosage 3.8 ml, 7 days): 34.3
